Laboratory results reported in patent US20230113802A1, “COMPOSITION AND METHOD TO PREPARE LONG-ACTING INJECTABLE SUSPENSION CONTAINING MULTIPLE CANCER DRUGS” (University of Washington, priority 2020, published 2023).
“And” between values parts separate entries of the source, which are not always exact repeats. Equal entries are not always repeated.

Assay: Drug association efficiency (AE %) of GT DcNPs by dialysis under sink conditions
Assay type: physicochemical
Conditions: in vitro dialysis under sink conditions, 4 h, batches 1-5 and average
Description: Ethanol was removed by controlled solvent evaporation at 60° C., followed by vacuum desiccation to remove residual solvent. The dry film was rehydrated to 100 mM lipids in 0.45% NaCl with 20 mM NaHCO3 buffer at 60° C. for 2 h. Particle size was reduced at ˜40° C. using a bath sonicator (Avanti Polar Lipids, Inc. Alabaster, Ala.) (5 min on, […], 3 cycles). GT DcNP formulations were stored at room temperature for further use. Particle size was determined by a NICOMP 380 ZLS (Particle Sizing Systems, Santa Barbara, Calif.). Drug extraction with acetonitrile followed by HPLC were used to quantify drugs in formulations. Drug association was measured by dialysis (6-8 kDa) of DcNP against 0.9% NaCl 20 mM NaHCO3 buffer for 4 h and quantification by HPLC.
Drug association efficiency (AE %) was determined by dialyzing 100 μl of the DcNP suspension (6-8 k MWCO) against 1000×volume (100 mL, pH=7.4) of bicarbonate buffered saline for 4 hours at room temperature. Drugs were extracted by acetonitrile and drug concentrations in pre and post-dialysis DcNP suspensions were measured with a Shimadzu HPLC-UV system (Kyoto, Japan). Chromatographic separation was achieved using a Kinetex C18 column (100 Å, 5 μm, 4.6 mm×100 mm) (Phenomenex, Torrance, Calif.). The flow rate was set to 1.0 mL/min with a 10 μl sample injection volume. The mobile phase for separation consisted of pump A (Acetonitrile) and B (10 mM Ammonium Acetate in water). The gradient program used was as follows: pump B was set to 40%, and increased to 100% over 5 minutes. […] AE % was calculated as the […] concentrations of G or T.

With `Nc1ccn([C@@H]2O[C@H](CO)[C@@H](O)C2(F)F)c(=O)n1` [Gemcitabine, 4-amino-1-[(2R,4R,5R)-3,3-difluoro-4-hydroxy-5-(hydroxymethyl)oxolan-2-yl]pyrimidin-2-one] the “AE % (association efficiency of drug to DcNP)” value (“AE %” for short) was 9%, the “AE %” value (listed as G) was 9% and 9±1% and the “AE %” value (listed as GEM) was 10% and 8% and 7%. The “AE %” value (listed as GEM, mean) was 9%.
